Experimental data reported in patent US20070128217A1 (priority 2003, published 2007).

What was measured:
[1] = tested on: antibodies in sera from SARS patients (sera 1a, 1b, 2, 6, 37, 62, London, SARS-yellow, SARS-green); assay type: binding, human; design: Binding of serum 6 to linear peptides of protein X1 of SARS-CoV Urbani / Binding of serum 37 to linear peptides of protein X1 of SARS-CoV Urbani / Binding of serum 6 to looped/cyclic peptide (PEPSCAN-ELISA) / Binding of serum 37 to looped/cyclic peptide (PEPSCAN-ELISA) / Binding of serum 37 to looped/cyclic peptides of protein X1 of SARS-CoV Urbani / Binding of serum 6 to linear peptides of protein X2 / Binding of serum 37 to linear peptides of protein X2 / Binding of serum 37 to looped/cyclic peptides of protein X2 of SARS-CoV Urbani / Binding of serum 6 to linear peptides of protein M of SARS-CoV Urbani / Binding of serum 37 to linear peptides of protein M of SARS-CoV Urbani / Binding of serum 6 to looped/cyclic peptides of protein M of SARS-CoV Urbani / Binding of serum 37 to looped/cyclic peptides of protein M of SARS-CoV Urbani / Binding of serum 6 to linear peptides of protein X3 of SARS-CoV Urbani / Binding of serum 37 to linear peptides of protein X3 of SARS-CoV Urbani / Binding of serum 37 to looped/cyclic peptides of protein X3 of SARS-CoV Urbani / Binding of serum 6 to linear peptides of protein X4 of SARS-CoV Urbani / Binding of serum 37 to linear peptides of protein X4 of SARS-CoV Urbani / Binding of serum 37 to looped/cyclic peptides of protein X4 of SARS-CoV Urbani / Binding of serum 6 to linear peptides of protein X5 of SARS-CoV Urbani / Binding of serum 37 to linear peptides of protein X5 of SARS-CoV Urbani / Binding of serum 37 to looped/cyclic peptides of protein X5 of SARS-CoV Urbani / Binding of serum 6 to linear peptides of protein N of SARS-CoV Urbani / Binding of serum 37 to linear peptides of protein N of SARS-CoV Urbani / Binding of serum 6 to linear peptide (PEPSCAN-ELISA) / Binding of serum 1a to looped/cyclic peptides of protein N of SARS-CoV Urbani / Binding of serum 1b to looped/cyclic peptides of protein N of SARS-CoV Urbani / Binding of serum 2 to looped/cyclic peptides of protein N of SARS-CoV Urbani / Binding of serum 6 to looped/cyclic peptides of protein N of SARS-CoV Urbani / Binding of serum 37 to looped/cyclic peptides of protein N of SARS-CoV Urbani / Binding of serum 62 to looped/cyclic peptides of protein N of SARS-CoV Urbani / Binding of serum London to looped/cyclic peptides of protein N of SARS-CoV Urbani / Binding of serum SARS-green to looped/cyclic peptides of protein N of SARS-CoV Urbani: unit not given here
[2] = tested on: rabbit serum obtained by immunizing a rabbit with the SARS-CoV strain Frankfurt 1; assay type: binding; design: Binding of a rabbit serum to linear peptides / Binding of a rabbit serum to looped peptides / Rabbit serum linear peptides / Rabbit serum looped peptides / Binding of a rabbit serum to linear peptides of protein N of SARS-CoV Urbani (Rabbit serum linear peptides) / Binding of a rabbit serum to looped/cyclic peptides of protein N of SARS-CoV Urbani (Rabbit serum looped peptides): unit not given here
[3] = tested on: control sera (pooled serum of ten healthy LUMC hospital workers; commercial negative donor pooled serum from the Dutch bloodbank); assay type: binding, human; design: Binding of Control serum LUMC to linear peptides / Binding of Control serum Blood-bank to linear peptides / Binding of Control serum LUMC to looped peptides / Binding of Control Serum Blood-Bank to Looped peptides / Binding of Control serum LUMC to linear peptides of the protein M of SARS-CoV Urbani / Binding of Control serum Blood-bank to linear peptides of the protein M of SARS-CoV Urbani / Binding of Control serum LUMC to looped peptides of the protein M of SARS-CoV Urbani / Binding of Control Serum Blood-Bank to Looped peptides of the protein M of SARS-CoV Urbani: unit not given here

LYKGFQFICNLLLLF
Binding of serum 1a to linear peptides of protein X1 of SARS-CoV Urbani [1]: 0.6 | Binding of serum 1a to looped/cyclic peptide (PEPSCAN-ELISA) [1]: 0.5 | Binding of serum 1b to linear peptides of protein X1 of SARS-CoV Urbani [1]: 0.5 | Binding of serum 1b to looped/cyclic peptide (PEPSCAN-ELISA) [1]: 0.3 | Binding of serum 2 to linear peptides of protein X1 of SARS-CoV Urbani [1]: 0.5 | Binding of serum 2 to looped/cyclic peptide (PEPSCAN-ELISA) [1]: 0.3 | Binding of serum 6 to linear peptides of protein X1 of SARS-CoV Urbani [1]: 0.4 | Binding of serum 6 to looped/cyclic peptide (PEPSCAN-ELISA) [1]: 1.5 | Binding of serum 37 to linear peptides of protein X1 of SARS-CoV Urbani [1]: 0.5 | Binding of serum 37 to looped/cyclic peptide (PEPSCAN-ELISA) [1]: 0.4 | Binding of serum 62 to linear peptides of protein X1 of SARS-CoV Urbani [1]: 0.4 | Binding of serum 62 to looped/cyclic peptide (PEPSCAN-ELISA) [1]: 0.5 | Binding of serum London to linear peptides of protein X1 of SARS-CoV Urbani [1]: 0.2 | Binding of serum London to looped/cyclic peptide (PEPSCAN-ELISA) [1]: 1.7 | Binding of serum SARS-green to linear peptides of protein X1 of SARS-CoV Urbani [1]: 0.2 | Binding of serum SARS-green to looped/cyclic peptide (PEPSCAN-ELISA) [1]: 0.2 | Binding of serum SARS-yellow to linear peptides of protein X1 of SARS-CoV Urbani [1]: 0.4 | Binding of serum SARS-yellow to looped/cyclic peptide (PEPSCAN-ELISA) [1]: 0.3 | Binding of a rabbit serum to linear peptides [2]: 0.2 | Binding of a rabbit serum to looped peptides [2]: 0.3 | Binding of Control Serum Blood-Bank to Looped peptides [3]: 0.4 | Binding of Control serum Blood-bank to linear peptides [3]: 0.5 | Binding of Control serum LUMC to linear peptides [3]: 0.5 | Binding of Control serum LUMC to looped peptides [3]: 0.6

LYLYALIYFLQCINA
Binding of serum 1a to linear peptides of protein X1 of SARS-CoV Urbani [1]: 0.7 | Binding of serum 1a to looped/cyclic peptide (PEPSCAN-ELISA) [1]: 0.3 | Binding of serum 1b to linear peptides of protein X1 of SARS-CoV Urbani [1]: 0.5 | Binding of serum 1b to looped/cyclic peptide (PEPSCAN-ELISA) [1]: 0.3 | Binding of serum 2 to linear peptides of protein X1 of SARS-CoV Urbani [1]: 0.4 | Binding of serum 2 to looped/cyclic peptide (PEPSCAN-ELISA) [1]: 0.2 | Binding of serum 6 to linear peptides of protein X1 of SARS-CoV Urbani [1]: 0.3 | Binding of serum 6 to looped/cyclic peptide (PEPSCAN-ELISA) [1]: 0.3 | Binding of serum 37 to linear peptides of protein X1 of SARS-CoV Urbani [1]: 0.5 | Binding of serum 37 to looped/cyclic peptide (PEPSCAN-ELISA) [1]: 0.4 | Binding of serum 62 to linear peptides of protein X1 of SARS-CoV Urbani [1]: 0.5 | Binding of serum 62 to looped/cyclic peptide (PEPSCAN-ELISA) [1]: 0.4 | Binding of serum London to linear peptides of protein X1 of SARS-CoV Urbani [1]: 0.2 | Binding of serum London to looped/cyclic peptide (PEPSCAN-ELISA) [1]: 0.2 | Binding of serum SARS-green to linear peptides of protein X1 of SARS-CoV Urbani [1]: 0.2 | Binding of serum SARS-green to looped/cyclic peptide (PEPSCAN-ELISA) [1]: 0.2 | Binding of serum SARS-yellow to linear peptides of protein X1 of SARS-CoV Urbani [1]: 0.5 | Binding of serum SARS-yellow to looped/cyclic peptide (PEPSCAN-ELISA) [1]: 0.3 | Binding of a rabbit serum to linear peptides [2]: 0.1 | Binding of a rabbit serum to looped peptides [2]: 0.5 | Binding of Control Serum Blood-Bank to Looped peptides [3]: 0.5 | Binding of Control serum Blood-bank to linear peptides [3]: 0.5 | Binding of Control serum LUMC to linear peptides [3]: 0.5 | Binding of Control serum LUMC to looped peptides [3]: 0.4

LYMAISPKFTTSLSL
Binding of serum 1a to linear peptides of protein X2 [1]: 0.7 | Binding of serum 1a to looped/cyclic peptides of protein X2 of SARS-CoV Urbani [1]: 0.6 | Binding of serum 1b to linear peptides of protein X2 [1]: 0.5 | Binding of serum 1b to looped/cyclic peptides of protein X2 of SARS-CoV Urbani [1]: 0.5 | Binding of serum 2 to linear peptides of protein X2 [1]: 0.5 | Binding of serum 2 to looped/cyclic peptides of protein X2 of SARS-CoV Urbani [1]: 0.5 | Binding of serum 6 to linear peptides of protein X2 [1]: 0.3 | Binding of serum 6 to looped/cyclic peptides of protein X2 of SARS-CoV Urbani [1]: 0.5 | Binding of serum 37 to linear peptides of protein X2 [1]: 0.6 | Binding of serum 37 to looped/cyclic peptides of protein X2 of SARS-CoV Urbani [1]: 0.5 | Binding of serum 62 to linear peptides of protein X2 [1]: 0.6 | Binding of serum 62 to looped/cyclic peptides of protein X2 of SARS-CoV Urbani [1]: 0.7 | Binding of serum London to linear peptides of protein X2 [1]: 0.3 | Binding of serum London to looped/cyclic peptides of protein X2 of SARS-CoV Urbani [1]: 0.6 | Binding of serum SARS-green to linear peptides of protein X2 [1]: 0.5 | Binding of serum SARS-green to looped/cyclic peptides of protein X2 of SARS-CoV Urbani [1]: 0.4 | Binding of serum SARS-yellow to linear peptides of protein X2 [1]: 0.6 | Binding of serum SARS-yellow to looped/cyclic peptides of protein X2 of SARS-CoV Urbani [1]: 0.5 | Binding of a rabbit serum to linear peptides [2]: 0.3 | Binding of a rabbit serum to looped peptides [2]: 0.5 | Binding of Control Serum Blood-Bank to Looped peptides [3]: 0.7 | Binding of Control serum Blood-bank to linear peptides [3]: 0.6 | Binding of Control serum LUMC to linear peptides [3]: 0.3 | Binding of Control serum LUMC to looped peptides [3]: 0.8

MCKYTQSTALQELLI
Binding of serum 1a to linear peptides of protein X2 [1]: 0.8 | Binding of serum 1a to looped/cyclic peptides of protein X2 of SARS-CoV Urbani [1]: 0.6 | Binding of serum 1b to linear peptides of protein X2 [1]: 0.7 | Binding of serum 1b to looped/cyclic peptides of protein X2 of SARS-CoV Urbani [1]: 0.6 | Binding of serum 2 to linear peptides of protein X2 [1]: 0.6 | Binding of serum 2 to looped/cyclic peptides of protein X2 of SARS-CoV Urbani [1]: 0.5 | Binding of serum 6 to linear peptides of protein X2 [1]: 0.5 | Binding of serum 6 to looped/cyclic peptides of protein X2 of SARS-CoV Urbani [1]: 0.3 | Binding of serum 37 to linear peptides of protein X2 [1]: 0.6 | Binding of serum 37 to looped/cyclic peptides of protein X2 of SARS-CoV Urbani [1]: 0.7 | Binding of serum 62 to linear peptides of protein X2 [1]: 0.8 | Binding of serum 62 to looped/cyclic peptides of protein X2 of SARS-CoV Urbani [1]: 0.8 | Binding of serum London to linear peptides of protein X2 [1]: 0.5 | Binding of serum London to looped/cyclic peptides of protein X2 of SARS-CoV Urbani [1]: 0.2 | Binding of serum SARS-green to linear peptides of protein X2 [1]: 0.8 | Binding of serum SARS-green to looped/cyclic peptides of protein X2 of SARS-CoV Urbani [1]: 0.7 | Binding of serum SARS-yellow to linear peptides of protein X2 [1]: 0.7 | Binding of serum SARS-yellow to looped/cyclic peptides of protein X2 of SARS-CoV Urbani [1]: 0.4 | Binding of a rabbit serum to linear peptides [2]: 0.2 | Binding of a rabbit serum to looped peptides [2]: 0.4 | Binding of Control Serum Blood-Bank to Looped peptides [3]: 0.8 | Binding of Control serum Blood-bank to linear peptides [3]: 0.9 | Binding of Control serum LUMC to linear peptides [3]: 0.7 | Binding of Control serum LUMC to looped peptides [3]: 0.7

MCLKILVRYNTRGNT
Binding of serum 1a to linear peptides of protein X5 of SARS-CoV Urbani [1]: 0.8 | Binding of serum 1a to looped/cyclic peptides of protein X5 of SARS-CoV Urbani [1]: 0.5 | Binding of serum 1b to linear peptides of protein X5 of SARS-CoV Urbani [1]: 0.6 | Binding of serum 1b to looped/cyclic peptides of protein X5 of SARS-CoV Urbani [1]: 0.3 | Binding of serum 2 to linear peptides of protein X5 of SARS-CoV Urbani [1]: 0.8 | Binding of serum 2 to looped/cyclic peptides of protein X5 of SARS-CoV Urbani [1]: 0.5 | Binding of serum 6 to linear peptides of protein X5 of SARS-CoV Urbani [1]: 1.4 | Binding of serum 6 to looped/cyclic peptides of protein X5 of SARS-CoV Urbani [1]: 0.4 | Binding of serum 37 to linear peptides of protein X5 of SARS-CoV Urbani [1]: 0.9 | Binding of serum 37 to looped/cyclic peptides of protein X5 of SARS-CoV Urbani [1]: 0.5 | Binding of serum 62 to linear peptides of protein X5 of SARS-CoV Urbani [1]: 0.9 | Binding of serum 62 to looped/cyclic peptides of protein X5 of SARS-CoV Urbani [1]: 0.7 | Binding of serum London to linear peptides of protein X5 of SARS-CoV Urbani [1]: 0.8 | Binding of serum London to looped/cyclic peptides of protein X5 of SARS-CoV Urbani [1]: 0.4 | Binding of serum SARS-green to linear peptides of protein X5 of SARS-CoV Urbani [1]: 0.9 | Binding of serum SARS-green to looped/cyclic peptides of protein X5 of SARS-CoV Urbani [1]: 0.2 | Binding of serum SARS-yellow to linear peptides of protein X5 of SARS-CoV Urbani [1]: 0.7 | Binding of serum SARS-yellow to looped/cyclic peptides of protein X5 of SARS-CoV Urbani [1]: 0.8 | Rabbit serum linear peptides [2]: 0.7 | Rabbit serum looped peptides [2]: 0.5 | Binding of Control Serum Blood-Bank to Looped peptides [3]: 0.4 | Binding of Control serum Blood-bank to linear peptides [3]: 0.8 | Binding of Control serum LUMC to linear peptides [3]: 0.6 | Binding of Control serum LUMC to looped peptides [3]: 0.5
